Laboratory results from patent US20180325914A1, “INCREASING STORAGE OF VITAMIN A, VITAMIN D AND/OR LIPIDS” (Salk Institute for Biological Studies, priority 2014, published 2018).

Tested on: primary HSCs

Cc1sc2c(c1C)C(c1ccc(Cl)cc1)=N[C@@H](CC(=O)OC(C)(C)C)c1nnc(C)n1-2 [JQ1, (S)-tert-butyl 2-(4-(4-chlorophenyl)-2,3,9-trimethyl-6H-thieno[3,2-f][1,2,4]triazolo[4,3-a][1,4]diazepin-6-yl)acetate]
Pla2r1 value_2 (gene Pla2r1, mRNA-Seq, sample Day_6_JQ1): 26.6778 | Plat value_2 (gene Plat, mRNA-Seq, sample Day_6_JQ1): 141.636 | Prelp value_2 (gene Prelp, mRNA-Seq, sample Day_6_JQ1): 1220.99 | Prss35 value_2 (gene Prss35, mRNA-Seq, sample Day_6_JQ1): 23.844 | Ptms value_2 (gene Ptms, mRNA-Seq, sample Day_6_JQ1): 627.919 | Ptrf value_2 (gene Ptrf, mRNA-Seq, sample Day_6_JQ1): 259.645 | Qpct value_2 (gene Qpct, mRNA-Seq, sample Day_6_JQ1): 87.1308 | Rad51 value_2 (gene Rad51, mRNA-Seq, sample Day_6_JQ1): 12.1115 | Rbp1 value_2 (gene Rbp1, mRNA-Seq, sample Day_6_JQ1): 218.378 | Reck value_2 (gene Reck, mRNA-Seq, sample Day_6_JQ1): 17.3878 | Rrm2 value_2 (gene Rrm2, mRNA-Seq, sample Day_6_JQ1): 68.04 | Rtn1 value_2 (gene Rtn1, mRNA-Seq, sample Day_6_JQ1): 47.263 | S100a4 value_2 (gene S100a4, mRNA-Seq, sample Day_6_JQ1): 250.226 | Sbsn value_2 (gene Sbsn, mRNA-Seq, sample Day_6_JQ1): 16.3231 | Scara3 value_2 (gene Scara3, mRNA-Seq, sample Day_6_JQ1): 43.4366 | Sdpr value_2 (gene Sdpr, mRNA-Seq, sample Day_6_JQ1): 94.9074 | Serpini1 value_2 (gene Serpini1, mRNA-Seq, sample Day_6_JQ1): 12.3234 | Sesn3 value_2 (gene Sesn3, mRNA-Seq, sample Day_6_JQ1): 27.3512 | Shcbp1 value_2 (gene Shcbp1, mRNA-Seq, sample Day_6_JQ1): 11.9996 | Shisa2 value_2 (gene Shisa2, mRNA-Seq, sample Day_6_JQ1): 144.995 | Slc2a8 value_2 (gene Slc2a8, mRNA-Seq, sample Day_6_JQ1): 16.1545 | Slc9a3r1 value_2 (gene Slc9a3r1, mRNA-Seq, sample Day_6_JQ1): 161.158 | Snai2 value_2 (gene Snai2, mRNA-Seq, sample Day_6_JQ1): 23.1888 | Spag5 value_2 (gene Spag5, mRNA-Seq, sample Day_6_JQ1): 9.803 | Spc25 value_2 (gene Spc25, mRNA-Seq, sample Day_6_JQ1): 27.2563 | Svep1 value_2 (gene Svep1, mRNA-Seq, sample Day_6_JQ1): 86.2113 | Tbx20 value_2 (gene Tbx20, mRNA-Seq, sample Day_6_JQ1): 54.5866 | Tcf19 value_2 (gene Tcf19, mRNA-Seq, sample Day_6_JQ1): 43.53 | Timp2 value_2 (gene Timp2, mRNA-Seq, sample Day_6_JQ1): 329.559 | Top2a value_2 (gene Top2a, mRNA-Seq, sample Day_6_JQ1): 41.0029 | Upk1b value_2 (gene Upk1b, mRNA-Seq, sample Day_6_JQ1): 78.8086 | Wdr6 value_2 (gene Wdr6, mRNA-Seq, sample Day_6_JQ1): 56.5942 | Zwilch value_2 (gene Zwilch, mRNA-Seq, sample Day_6_JQ1): 13.4294 | 3110003A17Rik value_2 (mRNA-Seq expression, Day_6_JQ1): 104.778 | 6330406I15Rik value_2 (mRNA-Seq expression, Day_6_JQ1): 30.5279 | 9030617O03Rik value_2 (mRNA-Seq expression, Day_6_JQ1): 9.249 | AI597468 value_2 (mRNA-Seq expression, Day_6_JQ1): 20.0206 | Adam12 value_2 (mRNA-Seq expression, Day_6_JQ1): 22.1402 | Adora2b value_2 (mRNA-Seq expression, Day_6_JQ1): 12.9207 | Aga value_2 (mRNA-Seq expression, Day_6_JQ1): 42.0303 | Ak3 value_2 (mRNA-Seq expression, Day_6_JQ1): 27.7827 | Anxa6 value_2 (mRNA-Seq expression, Day_6_JQ1): 122.139 | Arhgef10 value_2 (mRNA-Seq expression, Day_6_JQ1): 5.987 | Ass1 value_2 (mRNA-Seq expression, Day_6_JQ1): 41.1545 | Atp8b2 value_2 (mRNA-Seq expression, Day_6_JQ1): 19.4721 | Btg2 value_2 (mRNA-Seq expression, Day_6_JQ1): 38.7075 | C1qtnf1 value_2 (mRNA-Seq expression, Day_6_JQ1): 19.1118 | C1qtnf6 value_2 (mRNA-Seq expression, Day_6_JQ1): 58.5752 | Cav1 value_2 (mRNA-Seq expression, Day_6_JQ1): 17.5128 | Ccdc104 value_2 (mRNA-Seq expression, Day_6_JQ1): 19.7014 | Ccdc109b value_2 (mRNA-Seq expression, Day_6_JQ1): 9.232 | Cdc42bpa value_2 (mRNA-Seq expression, Day_6_JQ1): 16.5997 | Cdkn2b value_2 (mRNA-Seq expression, Day_6_JQ1): 41.7085 | Chst14 value_2 (mRNA-Seq expression, Day_6_JQ1): 18.8651 | Ckap4 value_2 (mRNA-Seq expression, Day_6_JQ1): 147.656 | Cnn2 value_2 (mRNA-Seq expression, Day_6_JQ1): 222.556 | Col5a1 value_2 (mRNA-Seq expression, Day_6_JQ1): 106.143 | Col5a2 value_2 (mRNA-Seq expression, Day_6_JQ1): 372.729 | Col6a1 value_2 (mRNA-Seq expression, Day_6_JQ1): 47.4496 | Col8a1 value_2 (mRNA-Seq expression, Day_6_JQ1): 69.7251 | Cpe value_2 (mRNA-Seq expression, Day_6_JQ1): 54.9734 | Cpz value_2 (mRNA-Seq expression, Day_6_JQ1): 4.843 | Csrp1 value_2 (mRNA-Seq expression, Day_6_JQ1): 294.801 | Cygb value_2 (mRNA-Seq expression, Day_6_JQ1): 51.8956 | Cyp51 value_2 (mRNA-Seq expression, Day_6_JQ1): 13.4382 | Dcaf12l1 value_2 (mRNA-Seq expression, Day_6_JQ1): 3.456 | Dlg4 value_2 (mRNA-Seq expression, Day_6_JQ1): 9.101 | Dnajb4 value_2 (mRNA-Seq expression, Day_6_JQ1): 44.3814 | Dst value_2 (mRNA-Seq expression, Day_6_JQ1): 16.9506 | Eda2r value_2 (mRNA-Seq expression, Day_6_JQ1): 23.0105 | Efemp2 value_2 (mRNA-Seq expression, Day_6_JQ1): 169.818 | Epdr1 value_2 (mRNA-Seq expression, Day_6_JQ1): 7.336 | Evc2 value_2 (mRNA-Seq expression, Day_6_JQ1): 7.337 | Fam114a1 value_2 (mRNA-Seq expression, Day_6_JQ1): 29.7898 | Fam115c value_2 (mRNA-Seq expression, Day_6_JQ1): 4.611 | Fam149a value_2 (mRNA-Seq expression, Day_6_JQ1): 4.452 | Fam189b value_2 (mRNA-Seq expression, Day_6_JQ1): 7.431 | Fgf18 value_2 (mRNA-Seq expression, Day_6_JQ1): 10.4873 | Fhl2 value_2 (mRNA-Seq expression, Day_6_JQ1): 40.1985 | Flnc value_2 (mRNA-Seq expression, Day_6_JQ1): 24.3492 | Fzd2 value_2 (mRNA-Seq expression, Day_6_JQ1): 16.4688 | Gabra3 value_2 (mRNA-Seq expression, Day_6_JQ1): 14.8418 | Gas6 value_2 (mRNA-Seq expression, Day_6_JQ1): 41.2636 | Gm5424 value_2 (mRNA-Seq expression, Day_6_JQ1): 5.331 | Gpx8 value_2 (mRNA-Seq expression, Day_6_JQ1): 110.547 | Grhpr value_2 (mRNA-Seq expression, Day_6_JQ1): 13.8722 | Gria3 value_2 (mRNA-Seq expression, Day_6_JQ1): 4.78 | Igfbp3 value_2 (mRNA-Seq expression, Day_6_JQ1): 483.66 | Igsf8 value_2 (mRNA-Seq expression, Day_6_JQ1): 44.7273 | Il1rap value_2 (mRNA-Seq expression, Day_6_JQ1): 20.7058 | Inpp5a value_2 (mRNA-Seq expression, Day_6_JQ1): 33.3765 | Isoc2b value_2 (mRNA-Seq expression, Day_6_JQ1): 4.059 | Kif1a value_2 (mRNA-Seq expression, Day_6_JQ1): 6.57 | LOC100616095 value_2 (mRNA-Seq expression, Day_6_JQ1): 13.992 | Lama2 value_2 (mRNA-Seq expression, Day_6_JQ1): 9.263 | Lars2 value_2 (mRNA-Seq expression, Day_6_JQ1): 12.6226 | Lpp value_2 (mRNA-Seq expression, Day_6_JQ1): 24.9042 | Lrig3 value_2 (mRNA-Seq expression, Day_6_JQ1): 4.218 | Lrrn4 value_2 (mRNA-Seq expression, Day_6_JQ1): 11.7356 | Maged2 value_2 (mRNA-Seq expression, Day_6_JQ1): 60.8426 | Mboat7 value_2 (mRNA-Seq expression, Day_6_JQ1): 28.6438 | Meg3 value_2 (mRNA-Seq expression, Day_6_JQ1): 15.1775 | Mlec value_2 (mRNA-Seq expression, Day_6_JQ1): 92.0676 | Mmgt2 value_2 (mRNA-Seq expression, Day_6_JQ1): 10.425 | Mmp2 value_2 (mRNA-Seq expression, Day_6_JQ1): 73.6315 | Mpp2 value_2 (mRNA-Seq expression, Day_6_JQ1): 4.639
